What was measured:
[1] = test system: rats; conditions: rats (Touret et al., 1995; Edgar and Seidel, 1997); cited from earlier work
[2] = test system: cats; conditions: cats (Lin et al., 1992); cited from earlier work
[3] = test system: non-human primates; conditions: non-human primates (Hernant et al, 1991); cited from earlier work
[4] = test system: canines; conditions: canines (Shelton et al., 1995); cited from earlier work
[5] = test system: patients previously diagnosed with MDD (single episode or recurrent); test: Clinical study: modafinil started together with an SSRI (fluoxetine or paroxetine) in MDD patients, depressive symptom assessment (HAMD-21, HAMD-31, response, remission); conditions: human, in vivo
Description: Eligible patients were previously diagnosed with MDD (single episode or recurrent), […] had significant fatigue (Fatigue Severity Scale [FSS] score of greater than or equal to 4), and had not taken antidepressant therapy for greater than or equal to 4 weeks. Patients were evaluated at screening, baseline (shown in Table 1), and weeks 1, 2, 3, 4, 5, and 6.
Patients were then started on a combination of an SSRI and modafinil.
Modafinil was initiated at 100 mg/day for 3 days and then titrated to 200 mg/day, depending on response and tolerability. SSRI therapy was either fluoxetine or paroxetine administered at 20 mg/day for 6 weeks.
Depressive symptom changes were analyzed using HAMD-31, each of which were videotaped and rated independently, and HAMD-21 total score evaluations. HAMD-21 total score analyses were also performed to evaluate response and remission rates. Changes in fatigue were assessed using the FSS. A fatigue response was defined as an FSS score of less than 4 at any post-baseline visit. […] Subjective sleepiness was assessed using the Epworth Sleepiness Scale (ESS). […] Symptoms associated with depression, including fatigue, mood, motivation, and concentration, were evaluated using patient-assessed Visual Analogue Scales (VAS).
Continuous variables were analyzed using a paired t-test for normally distributed data or Wilcoxon signed rank test for non-normal data. […]

[6] = test system: major depressive disorder; conditions: at 6 weeks; cited from earlier work

Row | SMILES | wakefulness [1] | wakefulness [2] | wakefulness [3] | wakefulness [4] | overall conclusion on adjuvant effect in patients with depression and significant fatigue [5] | response to antidepressant therapy [6]
1 | NC(=O)C[S+]([O-])C(c1ccccc1)c1ccccc1 (stereo not drawn) [Modafinil, 2-(benzhydrylsulfinyl) acetamide] | promotes wakefulness | promotes wakefulness | promotes wakefulness | promotes wakefulness | rapid-acting and effective adjuvant medication | 
2 | CNCCC(Oc1ccc(C(F)(F)F)cc1)c1ccccc1 (stereo not drawn) [fluoxetine] |  |  |  |  |  | about 50%

— patent US20040229942A1, “Analeptic and antidepressant combinations” (Cephalon Inc, priority 2003, published 2004)
